Data published in patent US7666996B2, “Casein derived peptides and uses thereof” (priority 2000, dated 2010).

How the values were obtained:
[1] = test system: Sup-T1 cells; experiment: Sup-T1 lymphocyte proliferation (cell counts); format: cell-based, human; settings: data not shown
Experimental: [^3H]-thymidine incorporation test: In order to test the effect of peptides derived from natural casein on T cell proliferation, several concentrations of peptides derived from natural casein (10 mg/ml stock in RPMI) were added to Sup-T1 cell cultures in 96 flat bottom microwell plate (5000 cells/well), as described for HIV-1 infection in Sup-T1 cells. Cells were counted and their viability was determined by trypan blue dye exclusion. They were pulsed with [^3H]-thymidine at each time point (3, 7, 10 and 14 days) for 18 hours (over night) and harvested on glass fiber filters for radioactivity reading (Incorporation of [^3H]-thymidine into cellular DNA is proportional to degree of cell proliferation).

[2] = test system: Non-Obese Diabetic (NOD) mice; experiment: Glucosuria in Non-Obese Diabetic (NOD) mice; format: in vivo; settings: for Healthy/Total (sugar not detected in urine): female NOD mice, 100 μg synthetic peptide once weekly for 5 weeks, evaluated after 25 weeks; for Urine Sugar: individual healthy NOD mice, after 25 weeks
Experimental: Juvenile (Type I, IDDM) diabetes in Non-Obese Diabetic (NOD) mice:
Peptides derived from natural casein: NOD mice are a commonly used model for research of autoimmune disease and human Juvenile Diabetes. Six week old female NOD mice received either one or two injections per week of 100 μg of peptides derived from natural casein, for a total of 5 or 10 treatments. Control mice received no treatment. The severity of disease was determined according to glucosuria, which was measured using Combi test sticks [Gross, D. J. et al (1994), Diabetology, 37:1195]. Results were expressed as the percent of glucosuria-free mice in each sample over a 365-day period.
Synthetic peptides derived from casein: In another experiment, 6 week old female NOD mice received one injection per week of 100 μg of Synthetic peptides derived from casein for a total of 5 treatments. Control mice received no treatment. Results were expressed as the number of healthy mice in the various treated groups.

[3] = test system: Non-Obese Diabetic (NOD) mice; experiment: Intraperitoneal Glucose Tolerance Test (IPGTT) in NOD mice; format: in vivo; settings: healthy NOD mice after 25 weeks
Experimental: Intraperitoneal Glucose Tolerance Test (IPGTT): The glucose tolerance test is the definitive method for investigating glucose metabolism and diabetic tendencies in mammals. Twenty five (25) weeks after receiving Synthetic peptides derived from casein, response to a glucose load was assessed with an intraperitoneal glucose tolerance test. Glucose injection consisted of 1 g/kg body weight. Glycemic values were determined from blood drawn prior to test (0 minutes) and 60 minutes after loading.

[4] = test system: human bone marrow cells; experiment: Colony assays in cultured human bone marrow cells (CFU-GM, MK, BFU-E, CFU-GEMM); format: cell-based; settings: 100 μg/ml synthetic peptide in the presence of EPO
Experimental: Proliferation of megakaryocyte- and erythroid forming cells from human bone marrow and cord blood cells: A sample of bone marrow from an apparently healthy human being was processed by density gradient separation using Histopaque-107 (Sigma Diagnostics) to obtain a purified population of mononuclear cells (MNC). Colony assays were performed in a plating medium containing final concentrations of 0.92% methyl cellulose (4000 centripase powder, Sigma Diagnostic), rehydrated in Iscoves modified Dulbecco's medium containing 36 mM sodium bicarbonate (Gibco), 30% fetal bovine serum (FBS) (Hyclone), 0.292 mg/ml glutamine, 100 units per ml penicillin and 0.01 mg per ml streptomycin (Biological Industries, Beit Haemek). Cord blood from normal births was collected and prepared as mentioned above.
Colony assay medium containing 10^5 MNC per ml was plated in triplicate wells within a 24 well tissue culture plate (Greiner), 0.33 ml per well. The cultures were incubated at 37° C. in 5% CO2, 95% air and 55% relative humidity with or without peptides derived from natural casein or synthetic peptides derived from casein, at the indicated concentrations. Plates were scored after 14 days for colonies containing more than 50 cells. […]

[5] = test system: murine bone marrow progenitor cells; experiment: CFU-GEMM colonies from murine bone marrow cells, differential counts; format: cell-based
Experimental: Proliferation of megakaryocytes in multipotential colonies (CFU-GEMM) from murine bone marrow cells: Primary bone marrow cells (1×10^5 per ml) from 8-12 week-old C3H/HeJ […], 95% air, at 37° C. The medium, appropriate for the growth of multipotential colonies (CFU-GEMM), contained 1% BSA (Sigma), 10^−4 M thioglycerol (Sigma), 2.8×10^−4 M human transferrin (TF, Biological industries, Israel), 10% WEHI-CM as a source of IL-3 and 2 units per ml erythropoietin (rhEPO, R & D Systems, Minneapolis). […] They were picked with a micropipette, cytocentrifuged and stained with May-Grunwald-Giemsa for differential counts. At least 700 cells were counted for each preparation.
Proliferation of Dendritic cells in CFU-GEMM: Multipotent (CFU-GEMM) colonies grown from primary bone marrow cells as described for the assay of megakaryocyte proliferation above were collected, stained and counted for dendritic cells. At least 700 cells were counted for each preparation.
Proliferation of Plasma cells in CFU-GEMM: Multipotent (CFU-GEMM) colonies grown from primary bone marrow cells as described for the assay of megakaryocyte proliferation above were collected, stained and counted for plasma cells. At least 700 cells were counted for each preparation.
Proliferation of Macrophage Cells in CFU-GEMM: Multipotent (CFU-GEMM) colonies grown from primary bone marrow cells as described for the assay of megakaryocyte proliferation above were collected, stained and counted for macrophage cells. At least 700 cells were counted for each preparation.
Proliferation of Red Blood Cells in CFU-GEMM: Multipotent (CFU-GEMM) colonies grown from primary bone marrow cells as described for the assay of megakaryocyte proliferation above were collected, stained and counted for red blood cells. At least 700 cells were counted for each preparation.
Proliferation of Polymorphonuclear Cells (PMN) in CFU-GEMM: Multipotent (CFU-GEMM) colonies grown from primary bone marrow cells as described for the assay of megakaryocyte proliferation above were collected, stained and counted for polymorphonuclear cells. […]

[6] = test system: irradiated, bone marrow transplanted mice; experiment: Leukocyte and platelet reconstitution in bone marrow transplant recipient mice; format: in vivo; settings: for enhancement of platelet counts over control mice: 3×10^6 cells, 10 days post-transplantation
Experimental: Leukocyte and platelet reconstitution in bone marrow transplant recipient Mice: BALB/c mice were sub-lethally irradiated at a source to skin distance of 70 cm, dosage of 50 cGy per minute, for a total of 600 cGy. The irradiated mice were […] casein, synthetic peptides derived from casein (13-26 amino acids, see Table 3 above), or human serum albumin (controls), following a double-blinded protocol. Leukocyte reconstitution was determined according to cell count in peripheral blood collected at indicated intervals from 6 to 12 days post treatment. Platelet reconstitution was determined by cell count in blood collected from the retro orbital plexus, into EDTA-containing vials, at indicated intervals from day 6 to day 15 post treatment. […]
In a third series of experiments, the mice were irradiated (800 cGy), reconstituted and injected intraperitoneally with 1.0 mg synthetic peptides derived from casein (peptides 3a and 4P, representing the first 6 and 12 amino acids of the N terminus of αS1 casein, respectively—see Table 3 above) daily, on days 4, 5, 6 and 7 post-transplantation. Platelet reconstitution was assayed at 10 and 12 days post-transplantation.
In a fourth series of experiments, F1 mice were irradiated (750 cGy), reconstituted with syngeneic bone marrow, and injected intravenously 24 hours later with 1 mg per mouse of synthetic peptides derived from casein representing amino acids 1-22 of the N terminus of αS1 casein. In addition, 2 (two) groups of mice were treated each with a natural fraction of αS1 casein position 1-23, and a fraction of peptides derived from natural κ-casein, representing amino acid coordinates 106-169 of κ-casein (SEQ ID NO: 27). WBC counts were conducted on days 5, 7, 10 and 12 post-transplantation.

[7] = test system: human bone marrow progenitor cells; experiment: CFU-GM colony formation with IL-3 and G-CSF, human bone marrow; format: cell-based; settings: 100 μg/ml, 14 days
Experimental: (§1) Cells were scored in the macroscopic colonies grown from human bone marrow cells prepared similarly to the CFU-GEMM colonies previously described. Cells were incubated with hematopoietic factors cytokine (IL-3) and colony stimulating factor (G-CSF), and 25 μg or more of synthetic peptides derived from casein: peptide J, representing amino acids 1-22 of α-S1 casein. Exposure of the human bone marrow progenitor cells to peptides derived from casein was for 14 days. Stimulation of colony formation (CFU) is expressed as the number of myeloid colonies in 10^5 plated MNCs.
A similar effect of synthetic peptides derived from αS1 casein was observed on the proliferation of granulocytes and macrophages from human bone marrow progenitor cells. […] (FIG. 20). Thus, synthetic peptides derived from αS1 casein or combinations thereof are effective in augmenting the effect of granulopoitic factors such as G-CSF on bone marrow hematpoietic progenitor cell differentiation and expansion.

[8] = test system: murine bone marrow progenitor cells; experiment: CFU-GM colony formation with IL-3 and G-CSF, murine bone marrow; format: cell-based
Experimental: as §1, with “murine” for “human”, “casein (J),” for “casein: peptide J,”, “casein, or 30-4, representing amino acids 1-6” for “casein. Exposure”, “α-S1 casein,” for “the human bone marrow progenitor cells to peptides derived from casein was”, “days, individually or in combination. The stimulation” for “days. Stimulation”
Synthetic peptides derived from αS1-casein stimulate Granulopoietic (GM) cell proliferation in CFU-GM: As mentioned hereinabove, formation and expansion of CFU-GM (Granulocyte and Macrophage) colonies, and CFU-GEMM (Granulocyte, Erythroid, Macrophage and Megakaryocyte) colonies constitute one of the early events in the differentiation of hematopoietic progenitor cells in the bone marrow.

Sequence	increase in lymphocyte cell number in infected cells ([1]; 250 μg per ml)	increase in lymphocyte cell number in infected cells ([1]; 500 μg per ml)	prevention of glucosuria (in words) ([2]; 100 μg once weekly for 5 weeks, 25 weeks)	Healthy/Total (sugar not detected in urine) [2]	Urine Sugar [2]	IPGT test outcome (in words) [3]	proliferation of erythroid cell precursors (BFU-E colonies) vs EPO alone [4]	effect on Early (E.MK) megakaryocyte formation (in words) ([5]; 25 μg or more, 14 days)	increase in total megakaryocyte proliferation over controls ([5]; synthetic peptide, FIG. 21)	peripheral white blood cell counts, day 10 ([6]; BALB/c, 600 cGy, 1 mg per mouse intraperitoneal, control 1.67)	peripheral white blood cell counts, day 12 ([6]; BALB/c, 600 cGy, 1 mg per mouse intraperitoneal, control 4.64)	white blood cell reconstitution (in words) ([6]; F1 mice, 750 cGy, 1 mg i.v., days 5 and 7 post-reconstitution)	enhancement of platelet counts over control mice ([6]; F1 mice, 750 cGy, 1 mg i.v.)	enhancement of platelet counts over control mice ([6]; F1 mice, 750 cGy, 1 mg i.v., listed as amino acids 1-22 of αS1-casein)	enhancement of granulopoietic stimulating effect of G-CSF (myelocyte formation) [7]	myelocyte formation with G-CSF and IL-3 (in words) ([8]; 25 μg or more, 14 days)	increase in proliferation of granulocytes ([8]; in the presence of G-CSF)
RPKHPIKHQ [X, synthetic peptide, N-terminal 9 amino acids of αS1 casein]	80%	33%	highly effective	3/5	Negative	no evidence of abnormal glucose metabolism	–	–	–	–	–	–	–	–	–	–	–
RPKHPIKHQGLPQEVLNE [F, synthetic peptide, N-terminal 18 amino acids of αS1 casein]	–	–	–	–	–	–	one and one-half	–	–	–	–	–	–	–	–	–	–
RPKHPIKHQGLPQEVLNENLLR [J, synthetic peptide, amino acids 1-22 of α-S1 casein]	–	–	–	3/5	Negative	–	–	dramatic effect	57%	2.74 ×10^6 cells per ml	5.20 ×10^6 cells per ml	dramatic enhancement	> 25%	34%	> 50%	synergistic increase	25%
